Test results: ChEMBL document CHEMBL2390894, “Quantitative analysis of histone demethylase probes using fluorescence polarization” (J Med Chem, 2013)
Active and inactive are the calls of the source. The rule behind the calls is not given here.

Columns and labels:
[1] = target: T1, Lysine-specific demethylase 2A (Homo sapiens, UniProt Q9Y2K7); experiment: Binding affinity to recombinant 6xHis-tagged JHDM1A (unknown origin) expressed in Escherichia coli BL21 by fluorescence polarization assay in presence of Ni2+
T1 sequence (Q9Y2K7 whole entry): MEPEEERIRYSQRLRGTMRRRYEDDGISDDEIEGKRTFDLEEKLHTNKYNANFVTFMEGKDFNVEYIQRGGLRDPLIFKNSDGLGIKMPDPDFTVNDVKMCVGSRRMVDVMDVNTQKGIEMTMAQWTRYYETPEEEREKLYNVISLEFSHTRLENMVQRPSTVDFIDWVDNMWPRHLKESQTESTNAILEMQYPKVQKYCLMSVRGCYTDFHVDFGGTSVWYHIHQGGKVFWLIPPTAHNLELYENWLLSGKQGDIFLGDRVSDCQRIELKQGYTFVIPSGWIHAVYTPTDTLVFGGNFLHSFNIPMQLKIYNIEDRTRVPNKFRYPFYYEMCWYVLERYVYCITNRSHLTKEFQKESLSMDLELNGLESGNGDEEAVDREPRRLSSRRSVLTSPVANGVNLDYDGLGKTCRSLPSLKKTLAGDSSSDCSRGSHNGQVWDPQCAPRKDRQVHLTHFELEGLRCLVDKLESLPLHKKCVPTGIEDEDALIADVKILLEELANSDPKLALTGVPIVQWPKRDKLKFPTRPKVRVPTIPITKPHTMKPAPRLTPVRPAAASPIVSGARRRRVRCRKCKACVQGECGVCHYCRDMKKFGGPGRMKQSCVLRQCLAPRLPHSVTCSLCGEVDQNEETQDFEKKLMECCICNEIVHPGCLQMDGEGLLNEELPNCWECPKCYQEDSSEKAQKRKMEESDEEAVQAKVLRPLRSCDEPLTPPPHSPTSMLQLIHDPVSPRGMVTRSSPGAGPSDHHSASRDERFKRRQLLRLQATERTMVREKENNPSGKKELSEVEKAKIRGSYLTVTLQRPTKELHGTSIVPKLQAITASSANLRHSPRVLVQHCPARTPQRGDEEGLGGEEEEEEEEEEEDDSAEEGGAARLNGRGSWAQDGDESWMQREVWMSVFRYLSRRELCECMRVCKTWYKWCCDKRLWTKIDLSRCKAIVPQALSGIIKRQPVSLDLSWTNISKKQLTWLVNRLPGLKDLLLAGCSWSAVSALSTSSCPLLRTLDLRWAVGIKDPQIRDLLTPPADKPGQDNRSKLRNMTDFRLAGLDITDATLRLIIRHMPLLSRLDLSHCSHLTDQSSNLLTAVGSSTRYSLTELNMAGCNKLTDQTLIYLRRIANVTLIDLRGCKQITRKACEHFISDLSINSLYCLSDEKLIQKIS

[2] = target: T2, Lysine-specific demethylase 6B (Homo sapiens, UniProt O15054); experiment: Inhibition of recombinant 6xHis-tagged JMJD3 (unknown origin) expressed in Escherichia coli BL21
T2 sequence (O15054 whole entry): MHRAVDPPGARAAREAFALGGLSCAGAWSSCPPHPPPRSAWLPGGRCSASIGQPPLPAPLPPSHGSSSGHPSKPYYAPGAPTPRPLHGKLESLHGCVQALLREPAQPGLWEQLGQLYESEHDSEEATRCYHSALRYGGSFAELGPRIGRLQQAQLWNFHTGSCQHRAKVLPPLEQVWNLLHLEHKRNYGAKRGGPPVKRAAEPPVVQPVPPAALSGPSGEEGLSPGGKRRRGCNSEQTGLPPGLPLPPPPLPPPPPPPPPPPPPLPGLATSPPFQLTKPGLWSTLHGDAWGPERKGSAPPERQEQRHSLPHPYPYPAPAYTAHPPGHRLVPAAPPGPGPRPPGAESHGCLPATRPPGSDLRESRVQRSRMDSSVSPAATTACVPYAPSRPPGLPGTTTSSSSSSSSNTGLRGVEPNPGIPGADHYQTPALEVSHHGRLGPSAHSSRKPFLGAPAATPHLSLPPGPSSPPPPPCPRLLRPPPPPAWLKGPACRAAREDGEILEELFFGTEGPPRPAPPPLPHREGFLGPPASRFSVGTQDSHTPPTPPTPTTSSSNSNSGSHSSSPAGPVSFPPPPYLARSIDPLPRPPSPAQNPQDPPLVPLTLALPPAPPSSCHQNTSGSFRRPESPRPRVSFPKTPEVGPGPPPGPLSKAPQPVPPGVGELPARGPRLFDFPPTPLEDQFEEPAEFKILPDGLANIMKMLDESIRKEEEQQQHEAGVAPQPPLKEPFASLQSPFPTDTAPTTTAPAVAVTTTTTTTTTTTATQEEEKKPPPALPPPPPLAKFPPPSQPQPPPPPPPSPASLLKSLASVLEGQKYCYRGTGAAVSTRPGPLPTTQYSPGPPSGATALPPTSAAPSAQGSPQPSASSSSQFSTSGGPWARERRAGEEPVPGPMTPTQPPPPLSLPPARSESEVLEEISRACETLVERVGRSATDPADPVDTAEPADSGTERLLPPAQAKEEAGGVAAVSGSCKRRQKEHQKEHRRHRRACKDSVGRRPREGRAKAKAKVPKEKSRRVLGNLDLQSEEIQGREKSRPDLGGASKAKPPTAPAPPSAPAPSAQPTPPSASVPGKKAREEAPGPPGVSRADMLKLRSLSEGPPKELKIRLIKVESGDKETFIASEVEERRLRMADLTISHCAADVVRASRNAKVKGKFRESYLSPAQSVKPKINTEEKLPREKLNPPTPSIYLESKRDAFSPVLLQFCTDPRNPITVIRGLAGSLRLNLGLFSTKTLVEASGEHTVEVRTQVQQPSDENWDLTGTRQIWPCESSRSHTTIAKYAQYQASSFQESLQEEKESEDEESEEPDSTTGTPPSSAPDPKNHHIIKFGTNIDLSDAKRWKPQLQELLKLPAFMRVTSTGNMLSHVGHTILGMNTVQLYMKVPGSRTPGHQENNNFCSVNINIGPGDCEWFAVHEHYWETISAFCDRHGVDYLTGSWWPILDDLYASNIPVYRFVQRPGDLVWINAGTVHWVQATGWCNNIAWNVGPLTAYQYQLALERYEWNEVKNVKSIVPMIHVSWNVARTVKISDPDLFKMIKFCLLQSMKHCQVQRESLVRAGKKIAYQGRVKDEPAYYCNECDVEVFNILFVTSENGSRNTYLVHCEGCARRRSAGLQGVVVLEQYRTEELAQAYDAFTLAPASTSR

[3] = target: T3, Lysine-specific demethylase 4A (Homo sapiens, UniProt O75164); experiment: Inhibition of JMJD2A (unknown origin)
T3 sequence (O75164 whole entry): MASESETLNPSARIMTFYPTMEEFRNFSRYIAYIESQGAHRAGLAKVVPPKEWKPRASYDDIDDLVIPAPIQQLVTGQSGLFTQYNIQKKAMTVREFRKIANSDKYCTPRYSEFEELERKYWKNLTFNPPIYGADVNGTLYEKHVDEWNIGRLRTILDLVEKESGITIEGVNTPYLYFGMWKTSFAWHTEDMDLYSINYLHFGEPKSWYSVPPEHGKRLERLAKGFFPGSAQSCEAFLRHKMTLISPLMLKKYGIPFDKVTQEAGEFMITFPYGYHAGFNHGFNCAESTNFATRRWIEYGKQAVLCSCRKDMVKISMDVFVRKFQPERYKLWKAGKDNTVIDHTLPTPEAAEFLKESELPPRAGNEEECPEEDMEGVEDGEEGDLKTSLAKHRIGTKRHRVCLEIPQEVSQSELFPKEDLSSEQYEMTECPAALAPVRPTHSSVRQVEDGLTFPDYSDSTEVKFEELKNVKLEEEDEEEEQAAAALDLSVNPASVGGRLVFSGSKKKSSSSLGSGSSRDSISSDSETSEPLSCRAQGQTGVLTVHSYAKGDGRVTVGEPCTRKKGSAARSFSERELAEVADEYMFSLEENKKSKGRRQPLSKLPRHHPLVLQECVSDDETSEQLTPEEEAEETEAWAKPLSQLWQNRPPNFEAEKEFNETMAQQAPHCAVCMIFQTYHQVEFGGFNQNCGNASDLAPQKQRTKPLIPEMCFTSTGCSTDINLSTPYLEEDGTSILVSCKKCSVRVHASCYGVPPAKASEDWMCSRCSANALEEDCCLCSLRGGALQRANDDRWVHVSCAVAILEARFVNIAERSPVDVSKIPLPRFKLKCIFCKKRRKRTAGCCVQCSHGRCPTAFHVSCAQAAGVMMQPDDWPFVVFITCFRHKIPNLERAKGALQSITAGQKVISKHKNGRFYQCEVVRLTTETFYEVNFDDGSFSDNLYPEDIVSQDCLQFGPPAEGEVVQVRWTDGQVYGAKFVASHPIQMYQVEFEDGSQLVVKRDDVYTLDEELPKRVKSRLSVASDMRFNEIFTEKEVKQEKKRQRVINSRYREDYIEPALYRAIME

[4] = target: T1, Lysine-specific demethylase 2A; experiment: Binding affinity to recombinant 6xHis-tagged JHDM1A (unknown origin) expressed in Escherichia coli BL21 by fluorescence polarization assay in presence of Co2+
[5] = target: T2, Lysine-specific demethylase 6B; experiment: Binding affinity to recombinant 6xHis-tagged JMJD3 (unknown origin) expressed in Escherichia coli BL21 up to 10 uM by fluorescence polarization assay
[6] = target: T1, Lysine-specific demethylase 2A; experiment: Inhibition of recombinant 6xHis-tagged JHDM1A (unknown origin) expressed in Escherichia coli BL21 using SAPATGGVK(Me2)KPHRYRPGTVAL as substrate incubated for 15 mins prior to substrate addition measured after 50 mins by rapid fire mass spectrophotometric analysis
[7] = target: T1, Lysine-specific demethylase 2A; experiment: Binding affinity to recombinant 6xHis-tagged JHDM1A (unknown origin) expressed in Escherichia coli BL21 by fluorescence polarization assay in presence of Fe2+ and sodium ascorbate
[8] = target: T4, Lysine-specific demethylase 4A (Homo sapiens) (UniProt O75164); experiment: Binding affinity to JMJD2A (unknown origin) up to 10 uM by fluorescence polarization assay
T4 sequence (whole entry): T3 sequence (O75164 whole entry)

[9] = target: T1, Lysine-specific demethylase 2A; experiment: Binding affinity to recombinant 6xHis-tagged JHDM1A (unknown origin) expressed in Escherichia coli BL21 by fluorescence polarization assay

Kd [1] | IC50 [2] | IC50 [3] | Kd [4] | Activity [5] | IC50 [6] | Kd [7] | Activity [8] | Kd [9] | SMILES
0.0093 µM | 9.5 µM | 23.5 µM | 0.022 µM | Active | 0.9 µM | 0.0086 µM | Active | 0.019 µM | NCc1ccc(CN(CCCCN(O)C(=O)/C=C/C(=O)O)C(=S)Nc2ccc(-c3c4ccc(=O)cc-4oc4cc(O)ccc34)c(C(=O)O)c2)cc1
– | 3.1 µM | 3.3 µM | – | – | – | – | – | – | O=C(O)/C=C/C(=O)N(O)CCCCNCc1ccc(COC(=O)Nc2cccc3ccccc23)cc1
– | 7.3 µM | 2.4 µM | – | – | 0.42 µM | – | – | – | NCc1ccc(CNCCCCN(O)C(=O)/C=C/C(=O)O)cc1
